Assay results from patent US5010074A, “Novel benzazepine derivatives” (Novo Nordisk A/S, priority 1988, dated 1991).
Like-named read-outs stand apart in the source and are kept apart here.

How the values were obtained:
in vivo [1] = assay: in vivo; design: species or system mongrel dogs; settings: dog, po
Description: As already mentioned, the benzazepines of the general formula given in Table II with X representing halogen have a low oral bioavailability. […] Some test results are stated in the following.
The benzazepines are administered orally to dogs and subsequently samples of their blood plasma are analysed for the compound by a specific HPLC-method. The area under the curve showing the oral plasma concentration versus time is calculated. This area is designated […].
The absolute oral bioavailability, F, is calculated as the ratio between the area representing the oral dose and the area for the intravenous dose according to the formula [formula]

in vivo [2] = settings: mouse, in vivo
From the text: (§1) Following the method of Pedersen, V. and Christensen, A.V.: "Antagonism of methylphenidate-induced stereotyped gnawing in mice", Acta Pharmacol. et Toxicol. 31: 488-496, 1972, antagonism of dopamine-dependent, methyl-phenidate-induced gnawing behaviour of mice, was used to assess the effects of the present D-1 antagonists. Further, the ratio of ED50 values obtained using i.v. administration and oral administration, respectively, was taken as an index of the bioavailability of the test drugs.

[3] = tested on: methyl-phenidate-induced gnawing behaviour of mice; assay: antagonism of methylphenidate-induced stereotyped gnawing in mice; settings: Mus musculus
From the text: as §1

dopamine D1 receptor = target: T1, dopamine D1 receptor (Rattus norvegicus, UniProt P18901); assay: binding to dopamine D1 receptor in homogenates from rat striatum
T1 construct: homogenates from rat striatum; from tissue; host or cells: rat striatum homogenate
From the text: Ki is the affinity of tested compounds for the dopamine D1 receptor.

[4] = in words; Life Sci. 34 (1984) 1529; cited from earlier work
D1 dopamine = settings: in words; Eur.J.Pharmacol. 91 (1983) 153; cited from earlier work
[5] = Table II, unit inferred, read-out: Ki
[6] = Table I, rat striatum homogenates, (+) enantiomere or racemic mixtures, read-out: Ki Dopamine D1 receptor

T1 sequence (P18901 whole entry): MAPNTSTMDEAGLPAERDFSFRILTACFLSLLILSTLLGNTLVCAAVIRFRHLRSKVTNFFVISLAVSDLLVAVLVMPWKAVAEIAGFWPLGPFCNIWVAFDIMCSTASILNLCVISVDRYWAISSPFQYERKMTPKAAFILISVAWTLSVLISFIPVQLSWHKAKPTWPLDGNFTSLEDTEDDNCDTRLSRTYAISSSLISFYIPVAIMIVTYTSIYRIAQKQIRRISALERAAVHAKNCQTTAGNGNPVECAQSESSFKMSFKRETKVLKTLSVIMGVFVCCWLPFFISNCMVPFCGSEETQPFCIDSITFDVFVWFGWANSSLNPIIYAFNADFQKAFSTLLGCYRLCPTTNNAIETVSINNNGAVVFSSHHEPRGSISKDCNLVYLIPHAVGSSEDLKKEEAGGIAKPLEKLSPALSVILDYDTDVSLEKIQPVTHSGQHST

SMILES | selectivity ratio (in vivo [2]) | ED50 ([3]; iv, read-out: ED50 i.v.) | ED50 ([3]; po, read-out: ED50 p.o.) | Ki (dopamine D1 receptor; [5]) | Ki (dopamine D1 receptor; [6]) | further results
CN1CCc2cc(Cl)c(O)cc2C(c2cccc3c2OCC3)C1 (stereo not shown) [8-chloro-7-hydroxy-3-methyl-5-(2,3-dihydrobenzofuran-7-yl)-2,3,4,5-tetrahydro-1H-3-benzazepine, reference compound] | 75 | 0.06 mg/kg | 4.5 mg/kg | 0.2 nM |  | bioavailability (in vivo [1]): 5.5%
CN1CCc2cc([N+](=O)[O-])c(O)cc2C(c2cccc3c2OCC3)C1 (single isomer, unassigned; (+)) [Example 5, (+)-5-(2,3-dihydrobenzofuran-7-yl)-7-hydroxy-3-methyl-8-nitro-2,3,4,5-tetrahydro-1H-3-benzazepine] | 17.3 | 0.11 mg/kg | 1.9 mg/kg | 4.6 nM | 11 nM | bioavailability (in vivo [1]): 65%
CN1CCc2cc([N+](=O)[O-])c(O)cc2C(c2ccc3c(c2)CCC3)C1 (stereo not shown) [Example 6, 7-hydroxy-5-(5-indanyl)-3-methyl-8-nitro-2,3,4,5-tetrahydro-1H-3-benzazepine] |  |  |  |  | 88 nM | 
CN1CCc2cc([N+](=O)[O-])c(O)cc2C(c2ccccc2F)C1 (stereo not shown) [Example 1, 5-(2-fluorophenyl)-7-hydroxy-3-methyl-8-nitro-2,3,4,5-tetrahydro-1H-3-benzazepine] |  |  |  |  | 42 nM | 
CN1CCc2cc(Cl)c(O)cc2[C@@H](c2ccccc2)C1 [SCH 23390, (R)-8-chloro-7-hydroxy-2,3,4,5-tetrahydro-3-methyl-5-phenyl-1H-3-benzazepine] |  | 0.017 mg/kg | 6.5 mg/kg |  |  | bioavailability after oral administration [4]: poor bioavailability after oral administration; duration of action [4]: short duration of action; D1 dopamine antagonism (D1 dopamine): selective D1 dopamine antagonist
CN1CCc2cc([N+](=O)[O-])c(O)cc2[C@@H]2c3ccccc3CC[C@H]21 (relative stereo) [Example 7, trans-[6,7,7a,8,9,13b]-hexahydro-2-hydroxy-7-methyl-3-nitro-5H-benzo[d]naphto[2,1-b]azepine] |  |  |  |  | 169 nM | 
CN1CCc2cc([N+](=O)[O-])c(O)cc2[C@@H](c2ccccc2)C1 [Example 4, (R)-7-hydroxy-3-methyl-8-nitro-5-phenyl-2,3,4,5-tetrahydro-1H-3-benzazepine] | 2.2 | 5.4 mg/kg | 11.9 mg/kg | 13 nM | 13 nM | 
Cc1ccccc1C1CN(C)CCc2cc([N+](=O)[O-])c(O)cc21 (stereo not shown) [Example 3, 7-hydroxy-3-methyl-8-nitro-5(2-methyl-phenyl)-2,3,4 5-tetrahydro-1H-3-benzazepine] |  |  |  |  | 28 nM | 
